Results from patent publication US20240376076A1, “INHIBITORS TARGETING UBIQUITIN SPECIFIC PROTEASE 7 (USP7)” (Dana-Farber Cancer Institute, Inc., priority 2021, published 2024).

Biological target: T1, USP7, Active human recombinant protein (Homo sapiens, UniProt Q93009)
T1 construct: purchased CP Lot; 20200225001
Experiment: USP7 assay (Ubiquitin-Rhodamine 110 enzymatic assay)
Type: biochemical
Details: read-out: IC50
Method: Enzymatic Assays with Exemplary USP7 Irreversible Inhibitors
ND refers to not disclosed.
USP7, Active human recombinant protein (CP, Lot. 20200225001), Ubiquitin-Rhodamine 110 (Rh110) (BostonBiochem, Cat. No. U-555), DMSO (Sigma, Cat. N34869), DTT (Sangon Biotech, Cat. No. A620058-0005), […] Tris pH 8.0 (Sigma, Cat. No. T2694-1L), Tween-20 (Sigma, Cat. No. P2287-100ML), EDTA (Invitrogen, Cat. No. 15575020, BSA (Sigma, Cat. No. B2064-100G), 384-well assay plate (Corning, Cat. No. 3573), Echo Qualified 384-Well Polypropylene Microplate 2.0, Clear, Flat Bottom (LABCYTE, Cat. No. 001-14555).
Dilute the compounds to 400× of the final desired highest inhibitor concentration in reaction by 100% DMSO. For all compounds, transfer the compounds to one well in a 384-well Echo plate and serially dilute the compound by 3-fold dilution of 100% DMSO in the next well and so forth for a total of 10 concentrations by Precision. Add 30 μL of 100% DMSO to two empty wells for no compound control and no enzyme control in the same 384-well Echo plate. Make the plate as a source plate.
For USP7 assay, transfer 50 nL of each well from the source plate to a 384-well assay plate (OptiPlate TM-384 F black assay plates) by Echo 550 Liquid Handler.
Added appropriate amount of USP7 in 1× assay Buffer to prepare 2× enzyme solution (USP7 final concentration: 0.05 nM). Added appropriate amount of Ubiquitin-Rhodamine 110 in 1× assay Buffer to prepare 2× substrate solution (Ubiquitin-Rhodamine 110 final concentration: 190 nM). Added 10 μL of 2× enzyme solution to each reaction well of the 384-well assay plate, except for control wells without enzyme (add 10 μL of 1× Assay Buffer instead as for low control). […] Transferred 2× substrate solution to the assay plate. Added 10 μL of 2× substrate solution to each well of the 384-well assay plate to start reaction. Centrifuged at 1000 rpm for 1 min. Read the plate kinetically on SpectraMax Paradigm for 20 min with excitation at 485 nm and emission at 535 nm. Copied raw data (slope) from Reader to obtain inhibition values in Excel using equation (1): […]
Max signal was obtained from the action of Enzyme and Substrate. Min signal was obtained from the Substrate only. To fit the data in XLFit excel add-in version 5.4.0.8 to obtain IC50 values used equation (2): […]
Y is % inhibition and X is compound concentration.

T1 sequence (Q93009 whole entry): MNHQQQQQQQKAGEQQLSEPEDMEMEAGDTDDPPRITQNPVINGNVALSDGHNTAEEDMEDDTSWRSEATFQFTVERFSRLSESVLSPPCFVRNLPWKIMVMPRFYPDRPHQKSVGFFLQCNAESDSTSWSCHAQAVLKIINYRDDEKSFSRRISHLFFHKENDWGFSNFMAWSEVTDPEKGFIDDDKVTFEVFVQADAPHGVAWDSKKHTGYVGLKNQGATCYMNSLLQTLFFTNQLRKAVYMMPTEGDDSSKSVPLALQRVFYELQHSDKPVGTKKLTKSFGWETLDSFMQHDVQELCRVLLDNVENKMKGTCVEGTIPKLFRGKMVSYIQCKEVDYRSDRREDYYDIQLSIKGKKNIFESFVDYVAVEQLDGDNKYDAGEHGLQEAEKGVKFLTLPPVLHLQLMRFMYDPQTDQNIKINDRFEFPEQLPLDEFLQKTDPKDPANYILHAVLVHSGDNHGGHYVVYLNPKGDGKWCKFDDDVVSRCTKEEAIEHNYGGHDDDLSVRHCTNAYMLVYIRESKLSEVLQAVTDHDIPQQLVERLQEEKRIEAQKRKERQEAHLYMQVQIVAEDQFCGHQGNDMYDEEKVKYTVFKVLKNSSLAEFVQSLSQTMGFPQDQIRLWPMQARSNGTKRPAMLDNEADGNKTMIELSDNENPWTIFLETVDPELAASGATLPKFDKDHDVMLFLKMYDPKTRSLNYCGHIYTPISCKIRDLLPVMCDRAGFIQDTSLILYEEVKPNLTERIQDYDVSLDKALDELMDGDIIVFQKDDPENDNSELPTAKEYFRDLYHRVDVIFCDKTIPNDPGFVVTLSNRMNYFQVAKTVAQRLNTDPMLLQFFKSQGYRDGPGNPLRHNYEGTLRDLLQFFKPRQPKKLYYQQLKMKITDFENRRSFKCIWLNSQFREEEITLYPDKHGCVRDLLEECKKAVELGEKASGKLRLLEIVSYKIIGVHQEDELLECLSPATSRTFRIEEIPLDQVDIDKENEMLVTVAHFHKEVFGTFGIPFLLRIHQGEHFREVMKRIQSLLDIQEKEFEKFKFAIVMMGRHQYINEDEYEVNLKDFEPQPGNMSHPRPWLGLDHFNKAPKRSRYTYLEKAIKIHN

SMILES	IC50
Cn1c(=O)n(CC2(O)CCN(C(=O)C(CCCNC(=O)c3ccc4c(Cl)ccnc4c3)Cc3ccccc3)CC2)c2cnccc21 (centres unmarked) [Compound 37, N-(4-benzyl-5-(4-hydroxy-4-((1-methyl-2-oxo-1H-imidazo[4,5-c]pyridin-3(2H)-yl)methyl)piperidin-1-yl)-5-oxopentyl)-4-chloroquinoline-7-carboxamide]	> 1 µM
CN1CCN(CCOc2ccc3ncn(CC4(O)CCN(C(=O)C(CCCNC(=O)c5ccc6c(Cl)ccnc6c5)Cc5ccccc5)CC4)c(=O)c3c2)CC1 (centres unmarked) [Compound 38, N-(4-benzyl-5-(4-hydroxy-4-((6-(2-(4-methylpiperazin-1-yl)ethoxy)-4-oxoquinazolin-3(4H)-yl)methyl)piperidin-1-yl)-5-oxopentyl)-4-chloroquinoline-7-carboxamide]	> 1 µM
CN(C)CCOc1ccc2ncn(CC3(O)CCN(C(=O)C(CCCNC(=O)c4ccc5c(Cl)ccnc5c4)Cc4ccccc4)CC3)c(=O)c2c1 (centres unmarked) [Compound 39, N-(4-benzyl-5-(4-((6-(2-(dimethylamino)ethoxy)-4-oxoquinazolin-3(4H)-yl)methyl)-4-hydroxypiperidin-1-yl)-5-oxopentyl)-4-chloroquinoline-7-carboxamide]	> 1 µM
CN(C)CCC(=O)Nc1ccc2c(=O)n(CC3(O)CCN(C(=O)[C@@H](CCCNC(=O)c4ccc5c(Cl)c6c(nc5c4)CN(C)CC6)Cc4ccccc4)CC3)cnc2c1 [Compound 41]	< 0.02 µM
CN(C)CCC(=O)Nc1ccc2c(=O)n(CC3(O)CCN(C(=O)[C@H](CCCNC(=O)c4ccc5c(Cl)c6c(nc5c4)CN(C)CC6)Cc4ccccc4)CC3)cnc2c1 [Compound 42]	0.1 to 1 µM
Cc1cc(Cl)nc2c(C(=O)NCCCC(Cc3ccccc3)C(=O)N3CCC(O)(Cn4cnc5cc(NC(=O)CCN(C)C)ccc5c4=O)CC3)ccn12 (centres unmarked) [Compound 44, N-(4-benzyl-5-(4-((7-(3-(dimethylamino)propanamido)-4-oxoquinazolin-3(4H)-yl)methyl)-4-hydroxypiperidin-1-yl)-5-oxopentyl)-2-chloro-4-methylpyrrolo[1,2-a]pyrimidine-8-carboxamide]	> 1 µM
Cc1cc(Cl)n2cc(C(=O)NCCCC(Cc3ccccc3)C(=O)N3CCC(O)(Cn4cnc5cc(NC(=O)CCN(C)C)ccc5c4=O)CC3)cc2n1 (centres unmarked) [Compound 45, N-(4-benzyl-5-(4-((7-(3-(dimethylamino)propanamido)-4-oxoquinazolin-3(4H)-yl)methyl)-4-hydroxypiperidin-1-yl)-5-oxopentyl)-4-chloro-2-methylpyrrolo[1,2-a]pyrimidine-7-carboxamide]	> 1 µM
CN(C)CCC(=O)Nc1ccc2c(=O)n(CC3(O)CCN(C(=O)C(CCCNc4cccc(-c5cc(Cl)ccn5)c4)Cc4ccccc4)CC3)cnc2c1 (centres unmarked) [Compound 46]	> 1 µM
CN(C)CCC(=O)Nc1ccc2c(=O)n(CC3(O)CCN(C(=O)C(CCCNC(=O)c4cc5c(Cl)ccnc5[nH]4)Cc4ccccc4)CC3)cnc2c1 (centres unmarked) [Compound 48, N-(4-benzyl-5-(4-((7-(3-(dimethylamino)propanamido)-4-oxoquinazolin-3(4H)-yl)methyl)-4-hydroxypiperidin-1-yl)-5-oxopentyl)-4-chloro-1H-pyrrolo[2,3-b]pyridine-2-carboxamide]	> 1 µM
Cc1cc(Cl)c2ccc(C(=O)NCCC[C@H](Cc3ccccc3)C(=O)N3CCC(O)(Cn4cnc5cc(NC(=O)CCN(C)C)ccc5c4=O)CC3)cc2n1 [Compound 50, (R)—N-(4-benzyl-5-(4-((7-(3-(dimethylamino)propanamido)-4-oxoquinazolin-3(4H)-yl)methyl)-4-hydroxypiperidin-1-yl)-5-oxopentyl)-4-chloro-2-methylquinoline-7-carboxamide]	> 1 µM
Cc1cc(Cl)c2ccc(C(=O)NCCC[C@@H](Cc3ccccc3)C(=O)N3CCC(O)(Cn4cnc5cc(NC(=O)CCN(C)C)ccc5c4=O)CC3)cc2n1 [Compound 51, (S)—N-(4-benzyl-5-(4-((7-(3-(dimethylamino)propanamido)-4-oxoquinazolin-3(4H)-yl)methyl)-4-hydroxypiperidin-1-yl)-5-oxopentyl)-4-chloro-2-methylquinoline-7-carboxamide]	0.02 to 0.1 µM
CN(C)CCC(=O)Nc1ccc2c(=O)n(CC3(O)CCN(C(=O)c4cnn(CCNC(=O)c5ccc6c(Cl)ccnc6c5)c4Cc4ccccc4)CC3)cnc2c1 [Compound 53, N-(2-(5-benzyl-4-(4-((7-(3-(dimethylamino)propanamido)-4-oxoquinazolin-3(4H)-yl)methyl)-4-hydroxypiperidine-1-carbonyl)-1H-pyrazol-1-yl)ethyl)-4-chloroquinoline-7-carboxamide]	0.1 to 1 µM
CN(C)CCC(=O)Nc1ccc2c(=O)n(CC3(O)CCN(C(=O)[C@@]4(Cc5ccccc5)CCN(CCNC(=O)c5ccc6c(Cl)ccnc6c5)C4)CC3)cnc2c1 [Compound 57]	> 1 µM
CN1CCN(CCC(=O)Nc2ccc3c(=O)n(CC4(O)CCN(C(=O)[C@H](CCCNC(=O)c5ccc6c(Cl)ccnc6c5)Cc5ccccc5)CC4)cnc3c2)CC1 [Compound 58, (R)—N-(4-benzyl-5-(4-hydroxy-4-((7-(3-(4-methylpiperazin-1-yl)propanamido)-4-oxoquinazolin-3(4H)-yl)methyl)piperidin-1-yl)-5-oxopentyl)-4-chloroquinoline-7-carboxamide]	> 1 µM
O=C(CCn1cccn1)Nc1ccc2c(=O)n(CC3(O)CCN(C(=O)C(CCCNC(=O)c4ccc5c(Cl)ccnc5c4)Cc4ccccc4)CC3)cnc2c1 (centres unmarked) [Compound 64, N-(5-(4-((7-(3-(JH-pyrazol-1-yl)propanamido)-4-oxoquinazolin-3(4H)-yl)methyl)-4-hydroxypiperidin-1-yl)-4-benzyl-5-oxopentyl)-4-chloroquinoline-7-carboxamide]	0.1 to 1 µM
COc1cc(Cl)c2ccc(C(=O)NCCCC(Cc3ccccc3)C(=O)N3CCC(O)(Cn4cnc5cc(NC(=O)CCN(C)C)ccc5c4=O)CC3)cc2n1 (centres unmarked) [Compound 66]	> 1 µM
COc1cc(Cl)nc2cc(C(=O)NCCCC(Cc3ccccc3)C(=O)N3CCC(O)(Cn4cnc5cc(NC(=O)CCN(C)C)ccc5c4=O)CC3)ccc12 (centres unmarked) [Compound 67]	> 1 µM
CN(C)CCC(=O)Nc1ccc2c(=O)n(CC3(O)CCN(C(=O)C(CCCNC(=O)c4ccc5c(Cl)nccc5c4)Cc4ccccc4)CC3)cnc2c1 (centres unmarked) [Compound 68]	> 1 µM

Now from value to compound:

IC50	SMILES
> 1 µM	CN(C)CCC(=O)Nc1ccc2c(=O)n(CC3(O)CCN(C(=O)[C@H]4CCN(CCNC(=O)c5ccc6c(Cl)ccnc6c5)C[C@@H]4c4ccccc4)CC3)cnc2c1 [Compound 74]
0.1 to 1 µM	CN(C)CCC(=O)Nc1ccc2c(=O)n(CC3(O)CCN(C(=O)[C@@H]4CN(CCNC(=O)c5ccc6c(Cl)ccnc6c5)C[C@H]4c4ccccc4)CC3)cnc2c1 [Compound 76]
0.1 to 1 µM	CN(C)CCC(=O)Nc1ccc2c(=O)n(CC3(O)CCN(C(=O)C(CCCNC(=O)c4ccc5c(Cl)ccnc5c4)Cc4cccnc4)CC3)cnc2c1 (centres unmarked) [Compound 82]
> 1 µM	CN(C)CCC(=O)Nc1ccc2c(=O)n(CC3(O)CCN(C(=O)N(CCCNC(=O)c4ccc5c(Cl)ccnc5c4)Cc4ccccc4)CC3)cnc2c1 [Compound 83]
> 1 µM	CN(C)CCC(=O)Nc1ccc2c(=O)n(CC3(O)CCN(C(=O)C(CCCNC(=O)c4ccc5c(Cl)c6c(nc5c4)CNCC6)Cc4ccccc4)CC3)cnc2c1 (centres unmarked) [Compound 88]
0.02 to 0.1 µM	CN(C)CCC(=O)Nc1ccc2c(=O)n(CC3(O)CCN(C(=O)C(CCCNC(=O)c4ccc5c(Cl)c6c(nc5c4)CCOC6)Cc4ccccc4)CC3)cnc2c1 (centres unmarked) [Compound 90]
0.02 to 0.1 µM	C=CS(=O)(=O)Nc1ccccc1N1CCC(C(=O)N2CCC(O)(Cn3cnc4cc(NC(=O)CCN5CCN(C)CC5)ccc4c3=O)CC2)CC1 [Compound 92]
0.1 to 1 µM	O=C(NCCN1CC[C@@H](C(=O)N2CCC(O)(Cn3cnc4c(-c5ccc(Br)cc5)nsc4c3=O)CC2)[C@H](c2ccccc2)C1)c1ccc2c(Cl)ccnc2c1 [Compound 98]
> 1 µM	CC1(C)C2C(=O)N(CC3(O)CCN(C(=O)[C@@H]4CCN(CCNC(=O)c5ccc6c(Cl)ccnc6c5)C[C@H]4c4ccccc4)CC3)C(=O)C21 (some centres unmarked) [Compound 99]
> 1 µM	O=C(CCN1CCNCC1)Nc1ccn2c(=O)c(CN3CCN(C(=O)[C@@H]4CCN(CCNC(=O)c5ccc6c(Cl)ccnc6c5)C[C@H]4c4ccccc4)CC3)cnc2c1 [Compound 100]
> 1 µM	O=C(CCN1CCNCC1)Nc1ccc2c(=O)n(CC3(O)CCN(C(=O)[C@@H]4CCN(CCNC(=O)c5ccc6c(Cl)ccnc6c5)C[C@H]4c4ccc(C(F)(F)F)cc4)CC3)cnc2c1 [Compound 101]
